Results reported in US8076371B2, “Gallium compositions for the treatment of liver cancer and methods of use” (priority 2006, dated 2011).

Experiments:
[1] = system: CD71 (transferrin receptor 1) in HCC cell lines; experiment: Immunoblotting, CD71 (transferrin receptor 1) protein level; format: cell-based, human; conditions: six-day exposure to 10 μM or 30 μM; all four HCC cell lines
Procedure: (§1) The activity of gallium maltolate and gallium nitrate was studied in vitro on several human hepatocellular carcinoma (HCC) cell lines (Hep3B, HepG2, SNU475, and Hep 40). Further information on these experiments is reported by Chua et al., Anticancer Research 26:1739-1744, 2006.
(§2) Immunoblotting: Cells were exposed to 10 μM or 30 μM gallium maltolate for six days; whole cell lysates were then prepared and total protein quantified using the Bradford Assay. Approximately 20 μg of protein was electrophoresed on pre-cast gels and transferred onto PVDF membranes. Non-specific sites were blocked by incubation with 5% non-fat milk in TBS-1% Tween solution for 1 hr at room temperature. Proteins were then detected with specific antibodies against CD71 (transferrin receptor 1) or PARP at recommended dilutions, followed by appropriate HRP-conjugated secondary antibodies.

[2] = system: human hepatocellular carcinoma (HCC) cell lines (Hep3B, HepG2, SNU475, and Hep 40); experiment: Assessment of apoptotic cell morphology (hematoxylin and eosin, light microscope); format: cell-based; conditions: 30 μM, six days exposure; all four HCC cell lines
Procedure: as §1
Assessment of apoptotic cell morphology: After six days exposure to gallium maltolate at either 10 μM or 30 μM, cells were fixed using absolute methanol at −20° C. for 10 min, then stained with hematoxylin and eosin. Cell morphology was then observed with a light microscope.

[3] = system: poly(ADP-ribose) polymerase (PARP) in HCC cell lines; experiment: Immunoblotting, PARP assay for apoptosis; format: cell-based, human; conditions: HCC cell lines Hep 3B, Hep 40, and SNU475; 10 μM or 30 μM, six days exposure
Procedure: as §1, §2

## Cc1occc(=O)c1[O-].Cc1occc(=O)c1[O-].Cc1occc(=O)c1[O-].[Ga+3] [gallium maltolate, tris(3-hydroxy-2-methyl-4H-pyran-4-onato)gallium]
[1]
  protein level of CD71 (transferrin receptor 1): dose-dependent increase
[2]
  cellular morphology (apoptosis): indicative of apoptosis
[3]
  poly(ADP-ribose) polymerase (PARP) assay for apoptosis: positive
